Earlier results in US6881247B2, “Protective barrier coating composition” (priority 2003, dated 2005).

Settings: calcium hydroxide

For `[Ca+2].[OH-].[OH-]` [calcium hydroxide, Calcium hydroxide], the pH is listed as 12.4.
